The target of one assay is T1, human TPO receptor (Homo sapiens, UniProt P40238).
T1 construct: expressed in transfected cells; host or cells: BaF-B03 (murine IL-3 dependent pro-B cell line); the resulting line is BaF/hTPOR
T1 sequence (P40238 26-635): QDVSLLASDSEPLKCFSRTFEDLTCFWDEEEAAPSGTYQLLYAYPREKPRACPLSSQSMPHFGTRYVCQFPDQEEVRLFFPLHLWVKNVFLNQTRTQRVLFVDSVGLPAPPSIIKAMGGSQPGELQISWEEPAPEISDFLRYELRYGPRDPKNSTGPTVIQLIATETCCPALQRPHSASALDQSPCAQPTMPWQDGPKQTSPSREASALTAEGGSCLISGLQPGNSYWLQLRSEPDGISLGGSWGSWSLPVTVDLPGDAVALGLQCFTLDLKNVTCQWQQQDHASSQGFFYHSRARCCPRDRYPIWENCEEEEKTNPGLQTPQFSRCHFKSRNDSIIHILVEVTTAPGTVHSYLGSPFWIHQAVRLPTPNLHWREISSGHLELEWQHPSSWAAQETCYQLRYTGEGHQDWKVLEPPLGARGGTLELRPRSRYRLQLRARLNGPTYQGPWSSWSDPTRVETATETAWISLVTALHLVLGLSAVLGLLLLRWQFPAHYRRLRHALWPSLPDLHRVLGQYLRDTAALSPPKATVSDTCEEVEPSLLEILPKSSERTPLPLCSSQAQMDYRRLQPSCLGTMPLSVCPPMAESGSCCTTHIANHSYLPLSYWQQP
The assay is described as follows: Thrombopoietic activity: proliferation of TPO dependent BaF/hTPOR cell line (WST-1). The note with it: BaF/hTPOR cells, 20 hours incubation then WST-1 for 4 hours, absorbance at 450 nm; ED50 = half concentration of the concentration showing the maximum thrombopoietic activity. Format: cell-based. The source says: The TPO dependent BaF/hTPOR cell line which was established by introducing human TPO receptor into BaF-B03 cells according to Collins et al (J. Cell. Physiol., 137:293-298 (1988)) was used to test the thrombopoietic activity of the present compound. The DNA sequences and encoded peptide sequences for human TPO receptor have been described by Vigon et al (Proc. Natl. Acad. Sci. USA, 89:5640-5644 (1992)). TPO dose not have any ability to support proliferation of interlukin-3 dependent parental cell line BaF-B03. BAF/hTPOR cells were maintained in RPMI medium and 10% WEHI-3 conditioned medium. These cells were washed once with PBS and resuspended in RPMI medium without WHEHI-3 conditioned medium and seeded into each well of 96-well microtiter plates at a density of 5×10^4 cells per well in the presence of the present compound or TPO. After incubation at 37° C. for 20 hours in the 5% CO2 incubator, WST-1 reagent (Takara Biomedicals, Japan) was added to each wells and the cells were further incubated for 4 hours. The absorbance at 450 nm was measured. Table 7 exemplifies the ED50 for tested compounds of the present invention, wherein the ED50 is the half concentration of the concentration showing the maximum thrombopoietic activity.
For `O=C1NC(=S)S/C1=C\c1ccc(C(=O)Nc2nc(-c3cccc(C(F)(F)F)c3F)cs2)cc1` [Compound A-1], it took 8 nM to reach a half-maximal effect (EC50).

In the case of `O=C1NC(=O)/C(=C/c2ccc(C(=O)Nc3nc(-c4cc(F)ccc4F)cs3)cc2)S1` [Compound A-2], the midpoint of the response, the EC50, lay at 86 nM.

`COc1ccc(-c2csc(NC(=O)c3ccc(/C=C4\SC(=O)NC4=O)cc3)n2)c(F)c1` [Compound A-3] showed an EC50 of 75 nM.

The compound `O=C1NC(=O)/C(=C/c2ccc(C(=O)Nc3nc(-c4ccc(C(F)(F)F)cc4F)cs3)cc2)S1` [Compound A-4] showed an EC50 of 26 nM. This EC50 lies about 2.9-fold lower than the previous one.

The compound `O=C1NC(=O)/C(=C/c2ccc(C(=O)Nc3nc(-c4cccc(F)c4F)cs3)cc2)S1` [Compound A-5] showed an EC50 of 25 nM.

`O=C1NC(=O)/C(=C/c2ccc(C(=O)Nc3nc(-c4ccc(Br)cc4F)cs3)cc2)S1` [Compound A-6] registered an EC50 of 38 nM.

Consider `Cc1ccc(-c2csc(NC(=O)c3ccc(/C=C4\SC(=O)NC4=O)cc3)n2)c(F)c1` [Compound A-7], for which a half-maximal effect (EC50) was put at 70 nM.

`O=C1NC(=O)/C(=C/c2ccc(C(=O)Nc3nc(-c4ccc(-c5ccccc5)cc4F)cs3)cc2)S1` [Compound A-8]: a half-maximal effect (EC50) was put at 345 nM.

In turn, `O=C1NC(=O)/C(=C/c2ccc(C(=O)Nc3nc(-c4cc(F)c(F)c(F)c4F)cs3)cc2)S1` [Compound A-10] showed an EC50 of 76 nM.

Regarding `O=C1NC(=O)/C(=C/c2ccc(C(=O)Nc3nc(-c4cccc(-c5ccccc5)c4F)cs3)cc2)S1` [Compound A-13], a half-maximal response (EC50) required 25 nM.

With `CCCCc1cccc(-c2csc(NC(=O)c3ccc(/C=C4\SC(=O)NC4=O)cc3)n2)c1F` [Compound A-28], the EC50 stood at 10 nM. Compared with the last compound, the EC50 is about 2.5-fold lower.

Consider `CCCc1c(Br)ccc(-c2csc(NC(=O)c3ccc(/C=C4\SC(=O)NC4=O)cc3)n2)c1F` [Compound A-29], for which it took 16 nM to reach a half-maximal effect (EC50).

`O=C1NC(=O)/C(=C/c2ccc(C(=O)Nc3nc(-c4cccc(-c5cccnc5)c4F)cs3)cc2)S1` [Compound A-30] displayed an EC50 of 109 nM.

`CCOc1cccc(-c2csc(NC(=O)c3ccc(/C=C4\SC(=O)NC4=O)cc3)n2)c1F` [Compound A-31] came in with an EC50 of 58 nM.

The compound `CC(C)(C)CCc1cccc(-c2csc(NC(=O)c3ccc(/C=C4\SC(=O)NC4=O)cc3)n2)c1F` [Compound A-32] gave an EC50 of 9 nM.

In the case of `O=C1NC(=O)/C(=C/c2ccc(C(=O)Nc3nc(-c4cccc(CCc5ccccc5)c4F)cs3)cc2)S1` [Compound A-33], the EC50 was 12 nM.

Regarding `O=C1NC(=O)/C(=C/c2ccc(C(=O)Nc3nc(-c4cccc(Cc5ccccc5)c4F)cs3)cc2)S1` [Compound A-34], the response was half-maximal at 23 nM (EC50).

For the compound `CCOCCc1cccc(-c2csc(NC(=O)c3ccc(/C=C4\SC(=O)NC4=O)cc3)n2)c1F` [Compound A-35], the EC50 amounted to 23 nM.

As for `O=C1NC(=O)/C(=C/c2ccc(C(=O)Nc3nc(-c4cccc(C5CCCCC5)c4F)cs3)cc2)S1` [Compound A-37], a half-maximal effect (EC50) was put at 17 nM.

`O=C1NC(=O)/C(=C/c2ccc(C(=O)Nc3nc(-c4cccc(C5CCCC5)c4F)cs3)cc2)S1` [Compound A-38] gave an EC50 of 28 nM.

For `COCCc1cccc(-c2csc(NC(=O)c3ccc(/C=C4\SC(=O)NC4=O)cc3)n2)c1F` [Compound A-42], the EC50 is 37 nM.

For `COCCOCCc1cccc(-c2csc(NC(=O)c3ccc(/C=C4\SC(=O)NC4=O)cc3)n2)c1F` [Compound A-43], the midpoint of the response, the EC50, lay at 69 nM.

In turn, `CCOC(=O)CCCCc1cccc(-c2csc(NC(=O)c3ccc(/C=C4\SC(=O)NC4=O)cc3)n2)c1F` [Compound A-44] came in with an EC50 of 84 nM. The EC50 values of the last two compounds are within 1.5-fold of each other.

In the case of `CCOC(=O)CCCCCc1cccc(-c2csc(NC(=O)c3ccc(/C=C4\SC(=O)NC4=O)cc3)n2)c1F` [Compound A-45], the EC50 was 74 nM. This EC50 and that of the compound before are within 1.5-fold of each other.

`O=C1NC(=O)/C(=C/c2ccc(C(=O)Nc3nc(-c4cccc(OC(F)(F)F)c4F)cs3)cc2)S1` [Compound A-46] displayed an EC50 of 13 nM.

Compound `COC(c1cccc(-c2csc(NC(=O)c3ccc(/C=C4\SC(=O)NC4=O)cc3)n2)c1F)C(C)C` (stereo not shown) [Compound A-50] showed an EC50 of 28 nM.

`COC(c1cccc(-c2csc(NC(=O)c3ccc(/C=C4\SC(=O)NC4=O)cc3)n2)c1F)C1CCCCC1` (stereo not shown) [Compound A-51]: it took 13 nM to reach a half-maximal effect (EC50).

The assay is the same for the next values; noted with them: Table 7; BaF/hTPOR cells, 20 hours incubation then WST-1 for 4 hours, absorbance at 450 nm; ED50 = half concentration of the concentration showing the maximum thrombopoietic activity.
Turning to `O=C1NC(=O)C(=Cc2ccc(C(=O)Nc3nc(-c4cccc(Br)c4F)cs3)cc2)S1` [Compound A-14], the EC50 was 26 nM.

On to `COc1cccc(-c2csc(NC(=O)c3ccc(C=C4SC(=O)NC4=O)cc3)n2)c1F` [Compound A-15], for which the response was half-maximal at 73 nM (EC50).

For `Cc1cccc(-c2csc(NC(=O)c3ccc(C=C4SC(=O)NC4=O)cc3)n2)c1F` [Compound A-16], the response was half-maximal at 25 nM (EC50). Compared with the last compound, the EC50 is about 2.9-fold lower.

In turn, `CCCCCc1cccc(-c2csc(NC(=O)c3ccc(C=C4SC(=O)NC4=O)cc3)n2)c1F` [Compound A-17] displayed a concentration giving a half-maximal response (EC50) of 13 nM.

In the case of `O=C1NC(=O)C(=Cc2ccc(C(=O)Nc3nc(-c4ccc(F)c(Br)c4F)cs3)cc2)S1` [Compound A-18], a half-maximal response (EC50) required 83 nM.

In turn, `O=C1NC(=O)C(=Cc2ccc(C(=O)Nc3nc(-c4ccc(F)c(-c5ccccc5)c4F)cs3)cc2)S1` [Compound A-19] displayed a half-maximal effective concentration (EC50) of 69 nM. This EC50 and that of the compound before are within 1.5-fold of each other.

`O=C1NC(=O)C(=Cc2ccc(C(=O)Nc3nc(-c4cccc(-c5ccc(F)cc5)c4F)cs3)cc2)S1` [Compound A-20] returned an EC50 of 28 nM.

`O=C1NC(=O)C(=Cc2ccc(C(=O)Nc3nc(-c4ccc(C(F)(F)F)c(Br)c4F)cs3)cc2)S1` [Compound A-21]: the EC50 amounted to 355 nM.

As to `CCCCCCc1cccc(-c2csc(NC(=O)c3ccc(C=C4SC(=O)NC4=O)cc3)n2)c1F` [Compound A-22], the EC50 was determined as 7 nM.

With `CCCCCc1c(F)ccc(-c2csc(NC(=O)c3ccc(C=C4SC(=O)NC4=O)cc3)n2)c1F` [Compound A-23], it took 75 nM to reach a half-maximal effect (EC50).

In the case of `CCCCOc1cccc(-c2csc(NC(=O)c3ccc(C=C4SC(=O)NC4=O)cc3)n2)c1F` [Compound A-24], the EC50 was 49 nM.

Compound `CCc1cccc(-c2csc(NC(=O)c3ccc(C=C4SC(=O)NC4=O)cc3)n2)c1F` [Compound A-25] gave an EC50 of 18 nM.

The compound `CC(C)CCCCc1cccc(-c2csc(NC(=O)c3ccc(C=C4SC(=O)NC4=O)cc3)n2)c1F` [Compound A-26] gave an EC50 of 7 nM.

Broadly, the EC50 is the midpoint of the concentration-response curve. A lower EC50 goes with an effect from little substance.
